EP2135864A1, “5-(4-methanesulfonyl-phenyl)-thiazole derivatives for the treatment of acute and chronic inflammatory diseases” (FAES FARMA, S.A., priority 2008, dated 2009)

Legend:
Assay type in all cases: cell-based, human
[1] = system: TNF-alpha; assay: TNF-alpha production by PBMC from healthy volunteers, Cytometric Bead Array (CBA); conditions: 24 hours, mean ± standard error, n=13
Procedure: (§1) CBA protocol was followed according to the manufacturer's instructions. The election of microparticles was performed following the summary of Figure 1.
(§2) The acquisition on samples was performed with the BD FACS Array Bioanalyser System (FACSArray, Becton Dickinson, San José, CA, USA) and the analysis of the results was completed with the software FCAP Array (Becton Dickinson) in a PC computer.
(§3) Briefly, the experimental protocol consisted of a plate pre-washing out with Wash Buffer. After decantation, the mixture of capture microparticles was re-suspended in the vortex. Standards and samples were added in the adequate dilution. After permanent stirring incubation during 1 h, the PE detection reagent was added and incubated again during 2h at room temperature. After a washing-out, the acquisition was performed in the flow cytometer. Table 3. -Kit CBA Human Soluble Protein Multiplex Flex Set System.
PBMC (5 x 10^4 cells/well) from 13 healthy volunteers were cultured in duplicate in 200 µl of complete medium supplemented with the highest solvent concentration (10^-6 M), […] the absence of LPS (10µg/ml) during 24 hours. Supernatant of cultures were frozen at -20°C and quantification was carried out by BD FACS Array Bioanayliser (BD Biosciences Cat No. 340128, San Diego CA 92121) by using specific reagents for the simultaneous assay of the indicated cytokines concentration (CBA Flex Multiplex Set (BD™ Cytometric Bead Array, CBA: IL-8, IL-10, TNF-alpha and IFN-gamma Becton Dickinson Biosciences Pharmingen, San Diego CA 92121).

[2] = system: TNF-alpha; assay: TNF-alpha production by PBMC from patients with rheumatoid arthritis, CBA; conditions: 24 hours, mean ± standard error, n=7
Procedure: as §1, §2, §3
In another experiment, PBMC (5 x 10^4 cells per well) from 7 patients with rheumatoid arthritis were cultured in duplicate in 200 µl of complete medium supplemented with the highest solvent (10^-6 M), and 10^-6 M, 10^-7 M and 10^-8 M compound 12 and in the presence and absence of either LPS (10 µg/ml), or anti-CD3 (12.5ng/ml) (Orthoclone OKT3, Ortho Pharmaceutical Corporation, Raritan NJ, USA) + anti-CD28 (1/3x10^5) (Clon 15E8, Menarini, Madrid, Spain), during 24 hours. Culture supernatants were frozen at -20°C and the concentration of TNF-alpha quantified by BD FACS Array Bioanalyser by using CBA Flex Set (Becton Dickinson), specific for determining the concentration of that cytokine, following the manufacturer instructions.

[3] = system: PBMC from healthy volunteers; assay: Proliferative response of PBMC, 3[H]-Thymidine incorporation; conditions: n=8; 4 days culture; absence or presence of PHA 10 µg/ml, PHA 2 µg/ml plus IL-2 (25 IU/ml), or anti-CD3 (12.5 ng/ml) + anti-CD28 (1:320.000)
Procedure: Faced against a mitogen stimulation, lymphocytes suffer a blastogenesis and cellular differentiation process. The method used to quantify the cellular proliferation was the assay of the incorporation of ^3[H]-Thymidine to the DNA de novo synthesized, and the emission of betha-radiation from the cellular cultures dried extracts (to which the tritiated base was added) was detected before its ending and harvesting. In the different experiments performed to study the proliferation, the purified cellular preparations were incubated in 96 microwells plain bottom plates at concentrations of 5 x 10^4 cells/well (200 µl final volume), in the presence of different concentrations of various mitogens with triplicate repetitions and along 4 days of culture.
The response to a specific stimuli depended on the density and cell type studied, as well as of the culture time and of the mitogenic agent concentration. […]
PBMC was cultured during 4 days (50.000 cells per well) at 37°C and 5 % CO2 atmosphere (Cell incubator HERA Cell 150, Thermoscientific, Thermoelectron, 63505 Lagenselbold, GE) in complete culture medium. […] The DNA-incorporated radioactive was quantified by using a betha particles counter Wallac Oy.

[4] = system: CD62L; assay: Shedding of CD62L in monocytes of PBMC, flow cytometry; conditions: monocytes of PBMC from healthy volunteers, mean ± standard error, n=10, vehicle 65.34±8.06

Cc1nc(OC2CCCC2)c(-c2ccc(S(C)(=O)=O)cc2)s1 [compound 12, 4-cyclopentyloxy-5-(4-methylsulfonyl-phenyl)-2-methylthiazole]
TNF-alpha production in PMBC from healthy volunteers ([1]; LPS (10µg/ml), 10^-6 M, vehicle 923.93±160.00, p 0.002): 602.12±100.00 (0.002) pg/mL
TNF-alpha production in PMBC from healthy volunteers ([1]; LPS (10µg/ml), 10^-7 M, vehicle 923.93±160.00, p 0.046): 746.84±125.00 (0.046) pg/mL
TNF-alpha production in PMBC from healthy volunteers ([1]; LPS (10µg/ml), 10^-8 M, vehicle 923.93±160.00, p 0.055): 738.81±100.00 (0.055) pg/mL
TNF-alpha production in PMBC from healthy volunteers ([1]; anti-CD3 (12.5 ng/ml) + anti-CD28 (1/3x10^5), 10^-6 M, vehicle 435.81±60.00, p 0.116): 334.21±63.00 (0.116) pg/mL
TNF-alpha production in PMBC from healthy volunteers ([1]; anti-CD3 (12.5 ng/ml) + anti-CD28 (1/3x10^5), 10^-7 M, vehicle 435.81±60.00, p 0.753): 404.11±97.00 (0.753) pg/mL
TNF-alpha production in PMBC from healthy volunteers ([1]; anti-CD3 (12.5 ng/ml) + anti-CD28 (1/3x10^5), 10^-8 M, vehicle 435.81±60.00, p 0.422): 355.62±65.00 (0.422) pg/mL
TNF-alpha production in PMBC from healthy volunteers ([1]; medium, 10^-6 M, vehicle 163.84±30.00, p 0.422): 148.31±50.00 (0.422) pg/mL
TNF-alpha production in PMBC from healthy volunteers ([1]; medium, 10^-7 M, vehicle 163.84±30.00, p 0.249): 197.81±40.00 (0.249) pg/mL
TNF-alpha production in PMBC from healthy volunteers ([1]; medium, 10^-8 M, vehicle 163.84±30.00, p 0.65): 168.49±16.00 (0.65) pg/mL
TNF-alpha production in PMBC from patients with rheumatoid arthritis ([2]; LPS (10µg/ml), 10^-6 M, vehicle 700.39±180.00, p 0.05): 383.75±75.00 (0.05) pg/ml
TNF-alpha production in PMBC from patients with rheumatoid arthritis ([2]; LPS (10µg/ml), 10^-7 M, vehicle 700.39±180.00, p 0.237): 626.57±150.00 (0.237) pg/ml
TNF-alpha production in PMBC from patients with rheumatoid arthritis ([2]; LPS (10µg/ml), 10^-8 M, vehicle 700.39±180.00, p 0.499): 683.40±120.00 (0.499) pg/ml
TNF-alpha production in PMBC from patients with rheumatoid arthritis ([2]; anti-CD3 (12.5 ng/ml) + anti-CD28 (1/3x10^5), 10^-6 M, vehicle 648.72±90.00, p 0.31): 532.07±80.00 (0.31) pg/ml
TNF-alpha production in PMBC from patients with rheumatoid arthritis ([2]; anti-CD3 (12.5 ng/ml) + anti-CD28 (1/3x10^5), 10^-7 M, vehicle 648.72±90.00, p 0.612): 568.47±97.00 (0.612) pg/ml
TNF-alpha production in PMBC from patients with rheumatoid arthritis ([2]; anti-CD3 (12.5 ng/ml) + anti-CD28 (1/3x10^5), 10^-8 M, vehicle 648.72±90.00, p 0.398): 695.81±79.00 (0.398) pg/ml
TNF-alpha production in PMBC from patients with rheumatoid arthritis ([2]; medium, 10^-6 M, vehicle 100.64±40.00, p 0.735): 177.32±95.00 (0.735) pg/ml
TNF-alpha production in PMBC from patients with rheumatoid arthritis ([2]; medium, 10^-7 M, vehicle 100.64±40.00, p 0.735): 191.33±80.00 (0.735) pg/ml
TNF-alpha production in PMBC from patients with rheumatoid arthritis ([2]; medium, 10^-8 M, vehicle 100.64±40.00, p 0.735): 131.95±85.00 (0.735) pg/ml
proliferative response of the PBMC from healthy volunteers [3]: did not significantly modify
Mean fluorescence intensity of surface CD62L expression in monocytes (MFI) ([4]; 10^-6 M, p 0.721): 63.90±8.52 (0.721)
Mean fluorescence intensity of surface CD62L expression in monocytes (MFI) ([4]; 10^-7 M, p 0.878): 72.30±10.21 (0.878)
